The values that follow come from paper PMC5688156, “The natural product carolacton inhibits folate-dependent C1 metabolism by targeting FolD/MTHFD” (Nature Communications, 2017).

Like-named read-outs stand apart in the source and are kept apart here. Where only a bound is given, the exact number is not on record here.

One data set deals with T1, hsMTHFD1_DC (Homo sapiens, UniProt P11586).
T1 construct: hsMTHFD1 DC301; His-tag (TEV-cleavable, vector pHis-TEV); made in house; host or cells: E. coli BL21 (DE3)
T1 sequence (P11586 2-291 limits assumed): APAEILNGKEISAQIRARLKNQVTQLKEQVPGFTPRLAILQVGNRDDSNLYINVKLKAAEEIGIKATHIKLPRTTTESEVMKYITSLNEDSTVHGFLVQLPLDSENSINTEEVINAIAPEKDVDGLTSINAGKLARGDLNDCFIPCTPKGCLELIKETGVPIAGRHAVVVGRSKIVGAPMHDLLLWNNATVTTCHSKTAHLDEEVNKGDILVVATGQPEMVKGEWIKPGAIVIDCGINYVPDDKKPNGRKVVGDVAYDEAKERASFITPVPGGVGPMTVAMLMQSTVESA
The experiment in a line: hsMTHFD1_DC cyclohydrolase (CYH) enzyme assay. The data set is classed as biochemical. The conditions noted are these: hsMTHFD1 DC301. The method, then: (§1) (6R,S)-5,10-Methylene-5,6,7,8-tetrahydrofolic acid ((6R,S)-5,10-CH2-THF) calcium salt and (6R,S)-5,10-Methenyl-5,6,7,8-tetrahydrofolic acid ((6R,S)-5,10-CH=THF) chloride were purchased from Schircks Laboratories (Bauma, Switzerland) and used as substrates for FolD dehydrogenase and cyclohydrolase enzyme assays, respectively. Only the R-isomer, which accounts for 50% of (6R,S)-5,10-CH2-THF and (6R,S)-5,10-CH=THF, respectively, is used by the enzyme. (6R,S)-5,10-CH2-THF was dissolved in N2-spargeled basic buffer (50 mM Tris-HCl (pH 8.0), 100 mM β-mercaptoethanol) as described by Varshney et al.[25]. (6R,S)-5,10-CH=THF was dissolved in DMSO as a 100 mM stock solution.
Because FolD is a bifunctional enzyme, dehydrogenase and cyclohydrolase activities were determined for FolD enzyme kinetics, respectively. The dehydrogenase activity of FolD was assayed for its substrate 5,10-CH2-THF and cofactor NADP^+ (in the case of MTHFD2, NAD^+ was used as the cofactor) based on monitoring the formation of 5,10-CH=THF, while the cyclohydrolase activity of FolD was determined for its substrate 5,10-CH=THF by monitoring the hydrolysis of […]. The enzyme kinetics for the dehydrogenase activity of all FolDs except hsMTHFD1_DC were determined at 30 °C in 50 mM Tris-HCl (pH 7.5), 30 mM β-mercaptoethanol. The hsMTHFD1_DC dehydrogenase activity was measured in 25 mM MOPS (pH 7.3), 30 mM β-mercaptoethanol at 30 °C. […] To monitor the formation of 5,10-CH=THF, the absorbance of the reaction mixture was monitored at 350 nm in micro UV cuvettes (BRAND, Essex, Connecticut, USA). The concentration of 5,10-CH=THF produced in the reaction was determined using an extinction co-efficient of 0.0249 μM^−1 cm^−1. […] The consumption of 5,10-CH=THF was measured by recording the absorbance of the reactions at 355 nm using the TECAN Infinite 200 PRO equipped with a monochromator. […] The inhibition constants (K i) of carolacton on FolD were determined by measuring the apparent K m when adding certain amounts of carolacton to the enzyme reactions. […]

A further data set addresses T2, spFolD (Streptococcus pneumoniae serotype 4, UniProt Q97RI9).
T2 construct: His-tag (TEV-cleavable, vector pHis-TEV); made in house; host or cells: E. coli BL21 (DE3)
The experiment in a line: spFolD dehydrogenase (DH) enzyme assay. It is filed as biochemical, S. pneumoniae. The method, then: as §1
Because FolD is a bifunctional enzyme, dehydrogenase and cyclohydrolase activities were determined for FolD enzyme kinetics, respectively. The dehydrogenase activity of FolD was assayed for its substrate 5,10-CH2-THF and cofactor NADP^+ (in the case of MTHFD2, NAD^+ was used as the cofactor) based on monitoring the formation of 5,10-CH=THF, while the cyclohydrolase activity of FolD was determined for its substrate 5,10-CH=THF by monitoring the hydrolysis of […]. The enzyme kinetics for the dehydrogenase activity of all FolDs except hsMTHFD1_DC were determined at 30 °C in 50 mM Tris-HCl (pH 7.5), 30 mM β-mercaptoethanol. The hsMTHFD1_DC dehydrogenase activity was measured in 25 mM MOPS (pH 7.3), 30 mM β-mercaptoethanol at 30 °C. To measure the enzyme kinetic constants for 5,10-CH2-THF, for example in the case of ecFolD, the NADP concentration was fixed at 1 mM and the concentration of 5,10-CH2-THF varied from 5 to 1500 μM (R-isomer). Similarly, to measure the kinetic constants of ecFolD for NADP^+, the concentration of 5,10-CH2-THF (R-isomer) was fixed at 1 mM and the concentration of NADP^+ varied from 10 to 1500 μM. For different FolDs, the varied concentration range of substrates could be different. […] To monitor the formation of 5,10-CH=THF, the absorbance of the reaction mixture was monitored at 350 nm in micro UV cuvettes (BRAND, Essex, Connecticut, USA). The concentration of 5,10-CH=THF produced in the reaction was determined using an extinction co-efficient of 0.0249 μM^−1 cm^−1. […] The consumption of 5,10-CH=THF was measured by recording the absorbance of the reactions at 355 nm using the TECAN Infinite 200 PRO equipped with a monochromator. […] The inhibition constants (K i) of carolacton on FolD were determined by measuring the apparent K m when adding certain amounts of carolacton to the enzyme reactions. […] To compare the inhibition effects of carolacton between the different FolDs, the half maximal inhibitory concentration (IC50) of carolacton on the same amount of enzyme was determined for FolDs involved in this study. […]

The test system of another data set is L929 mouse cells. Set-up: method as in doi:10.1002/ejoc.200901126, PMID 20659313. To be noted: cited from earlier work.
The target of a further data set is T3, ecFolD ΔK54R55 (Escherichia coli, UniProt P24186, DEL54-55).
T3 construct: His-tag (TEV-cleavable, vector pHis-TEV); made in house; host or cells: E. coli BL21 (DE3)
The experiment in a line: ecFolD ΔK54R55 mutant dehydrogenase (DH) enzyme assay. It is filed as biochemical, E. coli. On the procedure: as §1
Because FolD is a bifunctional enzyme, dehydrogenase and cyclohydrolase activities were determined for FolD enzyme kinetics, respectively. The dehydrogenase activity of FolD was assayed for its substrate 5,10-CH2-THF and cofactor NADP^+ (in the case of MTHFD2, NAD^+ was used as the cofactor) based on monitoring the formation of 5,10-CH=THF, while the cyclohydrolase activity of FolD was determined for its substrate 5,10-CH=THF by monitoring the hydrolysis of […]. The enzyme kinetics for the dehydrogenase activity of all FolDs except hsMTHFD1_DC were determined at 30 °C in 50 mM Tris-HCl (pH 7.5), 30 mM β-mercaptoethanol. […]

The test system of another data set is E. coli DSM-1116 (WT). The experiment in a line: MIC determination on E. coli DSM-1116 (WT). The conditions noted are these: Escherichia coli. It is filed as cell-based. On the procedure:
The determination of MICs was performed as described elsewhere. In brief, E. coli strains were treated with carolacton in serial dilution in either the presence or absence of sub-inhibitory concentrations of polymyxin B nonapeptide (PMBN; 3 µg/mL) and/or phenylalanine–arginine β-napthylamide (PAβN; 20 µg/mL) for 16 h at 37 °C in Mueller–Hinton broth. The MICs were assessed by visual inspection of the plates.

T2 sequence (Q97RI9 whole entry): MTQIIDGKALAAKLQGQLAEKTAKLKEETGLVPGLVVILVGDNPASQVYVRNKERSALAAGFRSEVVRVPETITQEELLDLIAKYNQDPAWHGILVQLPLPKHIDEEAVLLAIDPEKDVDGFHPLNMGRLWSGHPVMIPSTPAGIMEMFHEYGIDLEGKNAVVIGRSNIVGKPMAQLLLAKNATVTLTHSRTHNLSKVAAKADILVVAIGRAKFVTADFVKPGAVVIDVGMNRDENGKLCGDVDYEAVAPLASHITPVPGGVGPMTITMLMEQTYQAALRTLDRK

Usually IC50 stands for the midpoint of a concentration-inhibition curve. Broadly, the IC80 is the point of the concentration-response curve where the effect stands at 80%. A word on the Ki: it is the dissociation constant of the complex between target and ligand, obtained from inhibition or displacement. As a reminder, the MIC is the lowest concentration found to suppress growth. As for `CO[C@H](CC(=O)O)[C@@H](C)C(=O)[C@H](C)/C=C(\C)[C@H]1OC(=O)[C@H](O)[C@H](O)/C=C/[C@H](C)CCC[C@@H]1C` [carolacton], the half-maximal inhibitory concentration (IC50) was 19.4 nM on hsMTHFD1_DC (5 nM enzyme, read-out: IC50, carolacton inhibition on CYH activity) and 36.8 nM on spFolD (10 nM enzyme, read-out: IC50, carolacton inhibition on DH activity). The IC80 was 67.5 nM at hsMTHFD1_DC (5 nM enzyme, read-out: IC80, carolacton inhibition on CYH activity) and 169 nM at spFolD (10 nM enzyme, read-out: IC80, carolacton inhibition on DH activity). The inhibition constant (Ki) at hsMTHFD1_DC (vs 5,10-CH=THF, read-out: Ki (5,10-CH=THF), carolacton inhibition on CYH activity) came out at 20.6 nM; on spFolD (vs 5,10-CH2-THF, read-out: Ki (5,10-CH2-THF), carolacton inhibition on DH activity) it was 42.2 nM; on spFolD (vs NADP+, read-out: Ki (NADP+), carolacton inhibition on DH activity) it was 34.2 nM. Further, the “acute toxicity to L929 mouse cells” value with L929 mouse cells is reported as “no acute toxicity”. The “sensitivity of residual DH activity to carolacton” value at ecFolD ΔK54R55 is reported as “completely insensitive”. The minimum inhibitory concentration (MIC) is 2 µg/mL with E. coli DSM-1116 (WT) (DSM1116, + 3 µg/mL PMBN + 20 µg/mL PAβN, no full inhibition); ≥ 64 µg/mL in the data set with E. coli DSM-1116 (WT) (DSM1116, + 3 µg/mL PMBN, cation-adjusted Mueller–Hinton broth); 2 µg/mL in the data set with E. coli DSM-1116 (WT) (DSM1116, + 20 µg/mL PAβN (efflux inhibitor), no full inhibition); > 64 µg/mL against E. coli DSM-1116 (WT) (DSM1116, no additive, cation-adjusted Mueller–Hinton broth).
